Laboratory results: patent US12295967B2, “Pharmaceutical composition for prevention or treatment of flavivirus infection” (priority 2018, dated 2025)
Starred links: 1 amine or outer side, 2 acyl side, 3 side chain; linkers in the order of their positions; H or OH if unused. Positions of bridges follow the written chain, without caps; N, C: chain ends. Non-standard residues stand in square brackets, D forms with d. Residues, ends and D or L forms follow the SMILES beside them. *: point of attachment. hTyr(3S-OH,4S-OH,3'-OSO3H) = N[C@H](C(=O)O)[C@H](O)[C@@H](O)c1ccc(O)c(OS(=O)(=O)O)c1; Orn(4R-OH,5R-OH) = O=C([C@H](C[C@@H](O)[C@@H](O)N[*:3])N[*:1])[*:2]; Pro(3S-OH,4S-Me) = C[C@H]1CN[C@H](C(=O)O)[C@H]1O; X1 = CCCCCOc1ccc(-c2cc(-c3ccc(C(=O)*)cc3)no2)cc1; Gln(3R-OH) = NC(=O)C[C@@H](O)[C@H](N)C(=O)O; Hyp = O=C(O)[C@@H]1C[C@@H](O)CN1

Each molecule was assayed on DENV (assay: DENV viremia reduction in mouse blood, dengue infection model (AG129 mouse)). Settings: micafungin sodium IP, miltefosine oral, FIG. 5.
Format: in vivo
Protocol: On day 3, blood was collected from each mouse and transferred to an EDTA coated anticoagulant tube. After shaking for 10 minutes and gently mixing, 20 μl of each sample was analyzed by whole blood count using HEMAVET 950FS (Drew Scientific). The measured value of each factor was semi-quantified relative to that of the uninfected control. Plasma was isolated by centrifugation at 8000 g and 4° C. for 15 minutes in order to analyze cytokine hyperemia and expression changes. Plasma virus titer (viremia) and viral RNA expression in whole blood were analyzed by quantitative real-time PCR (qRT-PCR).
For target gene amplification, each primer was designed taking into account overlap between two exons of the target gene having a GC content of less than 50% and an expected amplicon size of about 100 bps. For quantification of viral RNA, quantitative real time PCR (qRT-PCR) was performed. Each reaction was performed in 20 μL volume using SYBR green master mix. Quantstudio 3™ (Applied Biosystems Inc., USA) was used for the present study in two-stage amplification process. […]
Virus in plasma was calculated according to an equation of standard curve. […] For cell-based group and mouse organ samples (including whole blood), semi-quantitative viral RNA was analyzed for GAPDH as an endogenous control. […]

`CCCCCOc1ccc(-c2cc(-c3ccc(C(=O)N[C@H]4C[C@@H](O)[C@@H](O)NC(=O)[C@@H]5[C@@H](O)[C@@H](C)CN5C(=O)[C@H]([C@H](O)CC(N)=O)NC(=O)[C@H]([C@H](O)[C@@H](O)c5ccc(O)c(OS(=O)(=O)O)c5)NC(=O)[C@@H]5C[C@@H](O)CN5C(=O)[C@H]([C@@H](C)O)NC4=O)cc3)no2)cc1` [Micafungin] (X1-[Orn(4R-OH,5R-OH)]T[Hyp][hTyr(3S-OH,4S-OH,3'-OSO3H)][Gln(3R-OH)][Pro(3S-OH,4S-Me)]; lactam 1-C) was tested, and the dengue viremia was “significantly reduced”.
With `CCCCCCCCCCCCCCCCOP(=O)([O-])OCC[N+](C)(C)C` [Miltefosine] the dengue viremia was “significantly reduced”.

Each molecule was assayed against T1, dengue virus helicase (Dengue virus type 2, UniProt P29990) (assay: Inhibition of dengue virus helicase activity). Settings: not given.
T1 construct: dengue virus helicase activity
T1 sequence (P29990 1476-2093): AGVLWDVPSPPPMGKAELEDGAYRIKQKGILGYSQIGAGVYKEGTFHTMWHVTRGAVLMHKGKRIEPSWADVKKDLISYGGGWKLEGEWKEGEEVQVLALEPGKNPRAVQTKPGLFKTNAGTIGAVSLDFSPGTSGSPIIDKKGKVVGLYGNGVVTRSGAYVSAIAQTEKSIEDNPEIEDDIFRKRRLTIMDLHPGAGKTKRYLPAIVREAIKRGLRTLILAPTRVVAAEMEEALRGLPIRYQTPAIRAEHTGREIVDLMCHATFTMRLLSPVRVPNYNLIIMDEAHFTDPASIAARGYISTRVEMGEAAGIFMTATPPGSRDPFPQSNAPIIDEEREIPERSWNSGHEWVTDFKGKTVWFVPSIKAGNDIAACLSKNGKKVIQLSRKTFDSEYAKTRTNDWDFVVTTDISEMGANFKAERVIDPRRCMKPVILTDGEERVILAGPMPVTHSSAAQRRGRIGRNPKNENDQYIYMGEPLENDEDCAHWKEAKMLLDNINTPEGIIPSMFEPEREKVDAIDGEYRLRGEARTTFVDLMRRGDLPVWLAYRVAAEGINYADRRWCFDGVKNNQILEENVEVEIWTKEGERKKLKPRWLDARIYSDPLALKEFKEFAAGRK
Format: biochemical
Description: A degree of inhibition of dengue virus helicase activity depending on the concentrations of 6 compounds was confirmed (IC50 values presented, FIG. 4).

Point of comparison: `O=C1Nc2ccc(Cl)cc2[C@@](C#CC2CC2)(C(F)(F)F)O1` [Efavirenz], IC50 38.5 µM. Against it:
- CCCCCOc1ccc(-c2cc(-c3ccc(C(=O)N[C@H]4C[C@@H](O)[C@@H](O)NC(=O)[C@@H]5[C@@H](O)[C@@H](C)CN5C(=O)[C@H]([C@H](O)CC(N)=O)NC(=O)[C@H]([C@H](O)[C@@H](O)c5ccc(O)c(OS(=O)(=O)O)c5)NC(=O)[C@@H]5C[C@@H](O)CN5C(=O)[C@H]([C@@H](C)O)NC4=O)cc3)no2)cc1 [Micafungin] (X1-[Orn(4R-OH,5R-OH)]T[Hyp][hTyr(3S-OH,4S-OH,3'-OSO3H)][Gln(3R-OH)][Pro(3S-OH,4S-Me)]; lactam 1-C) — 7.7-fold lower, 5 µM
- CC(=O)OCC1=C(C(=O)O)N2C(=O)[C@@H](NC(=O)Cc3cccs3)[C@H]2SC1 [Cephalothin] — within 1.5-fold, 26 µM

Same assay, conditions: dengue virus helicase activity; read-out: IC50, inhibitory target enzyme Helicase

Point of comparison: `C[C@@H]1[C@H](O)[C@@H](C)/C=C/C=C/CC/C=C/C=C/C=C/C=C/C(O[C@H]2O[C@H](C)[C@@H](O)[C@H](N)[C@@H]2O)CC2O[C@](O)(CC(O)C(O)CCC(O)CC(O)CC(O)CC(=O)O[C@H]1C)CC(O)C2C(=O)O` (stereo partly shown) [Nystatin], IC50 13.1 µM. Against it:
- CCCCCCCCCCCCCCCCOP(=O)([O-])OCC[N+](C)(C)C [Miltefosine] — within 1.5-fold, 17.5 µM
- Bleomycin — 9.4-fold lower, 1.4 µM

These molecules were tested against T2, dengue virus RdRp (Dengue virus type 2, UniProt P29990) (assay: biochemical). Settings: dengue virus RdRp enzyme activity; read-out: IC50, inhibitory target enzyme RdRp.
T2 construct: dengue virus RdRp enzyme activity
T2 sequence (P29990 2492-3391): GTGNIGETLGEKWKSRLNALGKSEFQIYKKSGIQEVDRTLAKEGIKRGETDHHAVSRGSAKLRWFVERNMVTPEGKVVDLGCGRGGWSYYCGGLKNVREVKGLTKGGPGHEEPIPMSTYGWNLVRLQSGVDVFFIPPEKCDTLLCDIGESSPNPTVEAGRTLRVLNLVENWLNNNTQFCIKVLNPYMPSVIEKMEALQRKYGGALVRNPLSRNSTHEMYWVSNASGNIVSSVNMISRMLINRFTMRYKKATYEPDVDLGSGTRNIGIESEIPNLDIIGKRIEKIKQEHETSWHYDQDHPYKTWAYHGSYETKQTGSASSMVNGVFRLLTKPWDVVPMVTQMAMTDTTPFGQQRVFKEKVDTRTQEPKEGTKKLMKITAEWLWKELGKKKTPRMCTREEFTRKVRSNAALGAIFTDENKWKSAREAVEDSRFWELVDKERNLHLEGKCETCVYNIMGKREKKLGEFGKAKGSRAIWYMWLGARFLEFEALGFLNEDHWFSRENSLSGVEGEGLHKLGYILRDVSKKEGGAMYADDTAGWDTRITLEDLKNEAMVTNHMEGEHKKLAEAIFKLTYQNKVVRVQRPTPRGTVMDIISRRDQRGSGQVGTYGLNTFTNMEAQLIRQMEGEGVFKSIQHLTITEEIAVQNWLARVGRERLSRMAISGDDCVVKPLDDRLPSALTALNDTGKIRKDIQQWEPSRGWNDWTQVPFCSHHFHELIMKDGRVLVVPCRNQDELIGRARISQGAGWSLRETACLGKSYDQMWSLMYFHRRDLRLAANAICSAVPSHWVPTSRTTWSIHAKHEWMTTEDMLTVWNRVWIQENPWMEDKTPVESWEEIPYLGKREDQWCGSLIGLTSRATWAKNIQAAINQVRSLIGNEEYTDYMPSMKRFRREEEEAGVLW

Point of comparison: `CCN(CCO)CCCC(C)Nc1ccnc2cc(Cl)ccc12` (stereo not shown) [Hydroxychloroquine], IC50 96 µM. Against it:
- CN1CCN(CCCN2c3ccccc3Sc3ccc(C(F)(F)F)cc32)CC1 [Trifluoperazine] — 4.3-fold lower, 22.1 µM
- CCN[C@@H]1C[C@H](N)[C@@H](O[C@H]2OC(CN)=CC[C@H]2N)[C@H](O)[C@H]1O[C@H]1OC[C@](C)(O)[C@H](NC)[C@H]1O [Netimicin] — 33-fold lower, 2.9 µM
- [NH2][Pt]1([NH2])[O]CC(=O)[O]1 [Nedaplatin] — within 1.5-fold, 86.4 µM
- Gentamicin Sulfate — 42-fold lower, 2.3 µM
- NC[C@H]1O[C@H](O[C@H]2[C@H](O)[C@@H](O[C@H]3O[C@H](CO)[C@@H](O)[C@H](N)[C@H]3O)[C@H](N)C[C@@H]2N)[C@H](N)C[C@@H]1O [Tobramycin] — 32-fold lower, 3 µM
- Capreomycin — 17-fold lower, 5.7 µM
- NCC[C@H](O)C(=O)N[C@@H]1C[C@H](N)[C@@H](O[C@H]2O[C@H](CN)[C@@H](O)[C@H](O)[C@H]2O)[C@H](O)[C@H]1O[C@H]1O[C@H](CO)[C@@H](O)[C@H](N)[C@H]1O [Amikacin] — 4-fold lower, 24.3 µM
- CN(C)Cc1ccc(S(=O)(=O)n2ccc(/C=C/C(=O)NO)c2)cc1 [Resminostat] — within 1.5-fold, 64.5 µM
- NC[C@@H]1O[C@H](O[C@H]2[C@@H](O)[C@H](O[C@@H]3[C@@H](O)[C@H](N)C[C@H](N)[C@H]3O[C@H]3O[C@H](CO)[C@@H](O)[C@H](O)[C@H]3N)O[C@@H]2CO)[C@H](N)[C@@H](O)[C@@H]1O [Paromomycin] — 21-fold lower, 4.5 µM
- CN[C@@H]1[C@H](O[C@H]2[C@H](O[C@H]3[C@H](O)[C@@H](O)[C@H](NC(=N)N)[C@@H](O)[C@@H]3NC(=N)N)O[C@@H](C)[C@]2(O)CO)O[C@@H](CO)[C@H](O)[C@H]1O [Dihydrostreptomycin] — 5.2-fold lower, 18.4 µM
